One test has as its system HECA-452 epitopes. Kind of test: Flow cytometric analysis of HECA-452 epitopes on human T-lymphocytes. The format is cell-based. To be noted: CLA^low T-cells or PBL after bromelain digestion. On the procedure: Only positive cells, which were those cells with fluorescence above background autofluorescence and fluorochrome-conjugated secondary Ab staining, were analyzed.
For analysis of CLA expression on T-cells treated with glycoconjugate modifiers, CLA^+ T-cells were first pretreated with neuraminidase (0.1 U/ml at 37° C. for 1 h) to eliminate functional CLA and cleave all HECA-452 reactive epitopes from the cell surface (35–38). Since we wanted to investigate whether these compounds directly affected CLA expression and function, neuraminidase pretreatment followed by incubations with glycosylation modifiers allowed for examination of de novo synthesized CLA/HECA-452 epitopes re-expressed on the cell surface. After neuraminidase digestion, cells were then incubated with tunicamycin (0.02 mM) (an inhibitor of GlcNAc phosphotransferase, the initial step of N-glycosylation), swainsonine (0.23 mM) (an inhibitor of α-mannosidase II and complex-type N-glycosylation), 4-F-GlcNAc (0.05 mM) (putative inhibitor of poly-N-acetyllactosamine biosynthesis), BAG (an inhibitor of O-glycan biosynthesis) (<2 mM) or GlcNAc (5 mM) (negative control, naturally-occurring metabolic counterpart of 4-F-GlcNAc)for 30 h in the presence of human recombinant IL-2. […] Concentrations for BAG were selected based on maximal O-glycosylation inhibitory effects at non-growth inhibitory concentrations as previously reported (39). To determine a suitable concentration of 4-F-GlcNAc for examining glycoconjugate-modifying effects without influencing cell growth or protein synthesis, we performed preliminary growth inhibitory experiments of cells incubated with 4-F-GlcNAc for 2 cell doublings (˜36 h) at 37° C. (cell viability assessed by Trypan-blue exclusion).
Flow cytometric analysis was performed on human leukocytes utilizing both direct and indirect immunofluorescence staining approaches. All cells utilized for these experiments were washed twice with cold PBS/2%FBS and suspended at 10^7/ml PBS/1% FBS. Primary antibodies, anti-CLA (HECA-452), -CD4, -CD8, CD43 (L60) and PSGL-1 (PL-2) along with the appropriate isotype-matched control antibodies were incubated with the cells for 30 min on ice. Following two washes with PBS/2%FBS, cells were resuspended in PBS/1%FBS and fluorochrome-conjugated secondary antibodies (2 μl) and incubated for 30 min on ice.

Test [1] relates to P-selectin ligand activity of CLA+ T-lymphocytes. Kind of test: Parallel-plate flow chamber, CLA+ T-cell tethering and rolling on P-selectin chimera. To be noted: 0.1% for 1 h at 37° C. The format is cell-based, human. On the procedure: (§1) To analyze the affects of 4-F-GlcNAc on the function of CLA on human T-cells, we examined the ability of 4-F-GlcNAc-treated (0.05, 0.1, 0.5 mM for 30 hrs) CLA-+ T-cells cultures to engage with immobilized E- and P-selectin chimera in the parallel-plate flow chamber. As described for flow cytometric analyses (Example 13), cells were first pretreated with neuraminidase to remove terminal sialic acid residues required for HECA-452 reactivity and for E- and P-selectin ligand activity of CLA. This approach allowed for the assessment on de novo synthesized CLA molecules.
(§2) Tethering and rolling of human T-cells on recombinant human E- and P-selectin-Ig chimera (provided by Dr. Robert Fuhlbrigge, Harvard Medical School) and human L-selectin-Ig (gift from Dr. Ray Camphausen, Wyeth/Genetics Institute, Inc., Cambridge, Mass.) were analyzed in the parallel-plate flow chamber under physiologic shear stress conditions (3). To prepare E- and P-selectin-Ig chimera spots, protein A (300 μg/15 μl 0.1M NaHCO3) was adsorbed to Ten-twenty-nine™ Petri dishes for 2 h at 37° C. Human serum albumin ([…] PBS) then added and incubated for 2 h at 37° C. to block non-specific binding sites. E-selectin-Ig (50 ng/50 μl PBS) or P-selectin-Ig (50 ng/50 μl PBS) solutions was pipetted directly over the pre-existing protein A spots for 18 h at 4° C. To prepare L-selectin-Ig spots, L-selectin-Ig (300 ng/15 μl PBS) or isotype control human IgG (300 ng/15 μl) were adsorbed directly to plastic (non-protein A-coated) for 18 h at 4° C. and blocked in 100% FBS for 2 h at 4° C.
(§3) CLA^+ T-cells or freshly isolated PBL were treated with neuraminidase and metabolic glycosylation inhibitors or with protease (bromelain) as described above, washed twice in HBSS, suspended at 2×10^6/ml in HBSS/10 mM HEPES/2 mM CaCl2 (H/H/Ca^++) and infused into the chamber over selectin chimeras. Protease treatment was performed to control for residual E-selectin activity not attributable to the expression of CLA on a protein scaffold. Cell tethering was permitted at 0.6 dynes/cm^2 for 1 min, then stepwise increments in shear stress every 15 sec were employed to a final shear stress level of 60 dynes/cm^2. The number of cells rolling/viewing field (at 100× magnification) was quantified at each level of shear stress in triplicates for a minimum of three experiments. […] Negative control experiments were performed in parallel, wherein cell binding was examined in H/H adhesion assay medium containing 5 mM EDTA as well as assaying cell binding to human IgG isotype control.
(§4) Utilizing the parallel-plate flow chamber under physiologic shear stress conditions, E-, P- and L-selectin ligand activities of human CLA^+ T-cells treated were analyzed in an identical manner as cells prepared for Western blotting and autoradiography studies.

In test [2] the test system is E-selectin ligand activity of CLA+ T-lymphocytes. In words: Parallel-plate flow chamber, CLA+ T-cell tethering and rolling on E-selectin chimera. The format is cell-based, human. To be noted: 0.1% for 1 h at 37° C. As for the experimental part:
as §1, §2, §3, §4

The subject of test [3] is L-selectin ligand activity of human CLA+ T-cells. In words: Parallel-plate flow chamber, CLA+ T-cell rolling on L-selectin chimera. In kind it is cell-based. Conditions: 0.1% for 1 h at 37° C. On the procedure:
as §2, §3, §4

For the substance bromelain, the “HECA-452 expression by flow cytometry” value in the test with HECA-452 epitopes was “relatively unchanged”. For the same substance, in test [1], the P-selectin ligand activity entry is on record as “completely eliminated”. The “remaining E-selectin ligand activity” value in test [2] is on record as < 25 % of control. Besides, the L-selectin ligand activity result in test [3] is given as “completely eliminated”.

The record behind these values is patent US7098195B2, “Fluorinated glucosamine analogs useful for modulating post-translational glycosylations on cells” (Health Research, Inc., priority 2001, dated 2006).
